Consider five molecules from ChEMBL document CHEMBL1240387, “In vitro activity of CEM-101, a new fluoroketolide antibiotic, against Chlamydia trachomatis and Chlamydia (Chlamydophila) pneumoniae” (2010).

Test [1] has as its system Chlamydia pneumoniae. Kind of test: Antimicrobial activity against Chlamydophila pneumoniae infected in human Hep2 cells after 72 hrs by twofold serial dilution method. The class given is functional, HEp-2.
In test [2] the test system is Chlamydia pneumoniae. The test is described as follows: Antimicrobial activity against Chlamydophila pneumoniae infected in human Hep2 cells after 72 hrs by fluorescence assay. The class given is functional, HEp-2.
In test [3] the test system is Chlamydia trachomatis. Kind of test: Antimicrobial activity against Chlamydia trachomatis after 72 hrs by fluorescence assay. The class given is functional.
Test [4] has as its system Chlamydia trachomatis. Kind of test: Antimicrobial activity against Chlamydia trachomatis after 72 hrs by twofold serial dilution method. The class given is functional.
Test [5] deals with Mycoplasmoides pneumoniae. Kind of test: Antimicrobial activity against Mycoplasma pneumoniae by microtiter plate reader assay. The class given is functional.
For test [6], the system named is Ureaplasma urealyticum. Kind of test: Antimicrobial activity against Ureaplasma urealyticum by microtiter plate reader assay. The class given is functional.
Test [7] relates to Mycoplasma genitalium. Kind of test: Antimicrobial activity against Mycoplasma genitalium by microtiter plate reader assay. The class given is functional. Conditions: Mycoplasmoides genitalium.
For test [8], the system named is Neisseria gonorrhoeae. Kind of test: Antimicrobial activity against Neisseria gonorrhoeae by microtiter plate reader assay. The class given is functional.
The test system of test [9] is Metamycoplasma hominis. Kind of test: Antimicrobial activity against Mycoplasma hominis by microtiter plate reader assay. The class given is functional.

Molecules are shown by their SMILES. In brackets after ≈: the same amount, converted by molar mass. Where only a bound is given, the exact number is not on record here.

With `CC[C@H]1OC(=O)[C@H](C)C(=O)[C@H](C)[C@@H](O[C@@H]2O[C@H](C)C[C@H](N(C)C)[C@H]2O)[C@](C)(OC)C[C@@H](C)C(=O)[C@H](C)[C@H]2N(CCCCn3cnc(-c4cccnc4)c3)C(=O)O[C@]12C` [TELITHROMYCIN], the MIC50 in test [1] and in test [4] was 60 ng/mL (≈ 73.9 nM) in each case. Moreover, the MIC90 in test [1] and in test [4] was 60 ng/mL (≈ 73.9 nM) in each case. The MBC90 in test [2] and in test [3] was 60 ng/mL (≈ 73.9 nM) in each case.

In the case of `CC[C@H]1OC(=O)[C@H](C)[C@@H](O[C@H]2C[C@@](C)(OC)[C@@H](O)[C@H](C)O2)[C@H](C)[C@@H](O[C@@H]2O[C@H](C)C[C@H](N(C)C)[C@H]2O)[C@](C)(OC)C[C@@H](C)C(=O)[C@H](C)[C@@H](O)[C@]1(C)O` [CLARITHROMYCIN], the MIC50 in test [1] and in test [4] was 60 ng/mL (≈ 80.2 nM) throughout. The MIC90 in test [1] and in [4] was 60 ng/mL (≈ 80.2 nM) throughout. Besides, the MBC90 in test [2] and in test [3] was 60 ng/mL (≈ 80.2 nM) in each case.

With `CC[C@H]1OC(=O)[C@@](C)(F)C(=O)[C@H](C)[C@@H](O[C@@H]2O[C@H](C)C[C@H](N(C)C)[C@H]2O)[C@](C)(OC)C[C@@H](C)C(=O)[C@H](C)[C@H]2N(CCCCn3cc(-c4cccc(N)c4)nn3)C(=O)O[C@]12C` [SOLITHROMYCIN], the MIC (commonly the lowest concentration found to suppress growth) in [5] was no more than 500 ng/mL; in test [6] it was 0.03 ng/mL (≈ 0.0355 nM); in [7], no more than 0.03 ng/mL; in test [8], no more than 250 ng/mL; in [9], no more than 0.03 ng/mL. The MIC50 in [1] and in [4] was 250 ng/mL (≈ 296 nM) in each case. Also, the MIC90 in [1] and in test [4] was 250 ng/mL (≈ 296 nM) each time. For the same molecule, the MBC90 in [2] and in test [3] was 250 ng/mL (≈ 296 nM) each time.

Regarding `CC[C@H]1OC(=O)[C@H](C)[C@@H](O[C@H]2C[C@@](C)(OC)[C@@H](O)[C@H](C)O2)[C@H](C)[C@@H](O[C@@H]2O[C@H](C)C[C@H](N(C)C)[C@H]2O)[C@](C)(O)C[C@@H](C)CN(C)[C@H](C)[C@@H](O)[C@]1(C)O` [AZITHROMYCIN], the MIC50 in [1] and in [4] was 125 ng/mL (≈ 167 nM) each time. The MIC90 in test [1] and in test [4] was 125 ng/mL (≈ 167 nM) in each case.

As to `C[C@H]1c2cccc(O)c2C(=O)C2=C(O)[C@]3(O)C(=O)C(C(N)=O)=C(O)[C@@H](N(C)C)[C@@H]3[C@@H](O)[C@@H]21.O` [DOXYCYCLINE], the MIC50 in test [1] and in test [4] was 60 ng/mL each time. Also, the MIC90 in test [1] and in test [4] was 60 ng/mL each time. For the same molecule, the MBC90 in test [2] and in test [3] was 60 ng/mL each time.
